Each structure is given as a SMILES string.

Data set [1] has as its system HCT-15. Briefly: MTT test, cytotoxic activity on non-clonogenic cell lines. The class given is cell-based. Particulars: Homo sapiens, 10^−5 M, 72 hours of incubation, control condition = 100%, mean value, read-out: mean optical density as percentage of control, HCT-16. The gist of the method:
(§1)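 Compounds span 10^−5 to 10^−10 M, with solvent-treated wells as control, and the formazan is quantified by absorbance after DMSO solubilization.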
In general terms: Tetrazolium dyes change colour on reduction, which living cells bring about.

A further data set deals with T-47D. Described as above. The class given is cell-based. Particulars: Homo sapiens, T47D; 10^−5 M, 72 hours of incubation, control condition = 100%, mean value; read-out: mean optical density as percentage of control, T-47D. In short, it runs like this:
as §1

In the next data set the test system is U-87MG. The data set is described as above. The class given is cell-based. Particulars: Homo sapiens, U-87 MG; 10^−5 M, 72 hours of incubation, control condition = 100%, mean value; read-out: mean optical density as percentage of control, U-87MG. The gist of the method:
as §1

Another data set relates to A-427. The data set is described as above. The class given is cell-based. Conditions: Homo sapiens, 10^−5 M, 72 hours of incubation, control condition = 100%, mean value, read-out: mean optical density as percentage of control, A-427. In short, it runs like this: as §1
Another data set deals with LoVo. Described as above. The class given is cell-based. Particulars: Homo sapiens, 10^−5 M, 72 hours of incubation, control condition = 100%, mean value, read-out: mean optical density as percentage of control, LoVo. The gist of the method:
as §1

In the next data set the test system is A549. The description is as above. The class given is cell-based. Particulars: Homo sapiens, 10^−5 M, 72 hours of incubation, control condition = 100%, mean value, read-out: mean optical density as percentage of control, A549. The gist of the method: as §1
A further data set deals with MCF7. The description is as above. Conditions: Homo sapiens, 10^−5 M, 72 hours of incubation, control condition = 100%, mean value, read-out: mean optical density as percentage of control, MCF7. The class given is cell-based. In short, it runs like this:
as §1

The subject of the next data set is U-373MG. The description is as above. The class given is cell-based. Particulars: Homo sapiens, U373 MG; 10^−5 M, 72 hours of incubation, control condition = 100%, mean value; read-out: mean optical density as percentage of control, U-373MG. In short, it runs like this: as §1
A further data set concerns PC-3. Described as above. Conditions: Homo sapiens, 10^−5 M, 72 hours of incubation, control condition = 100%, mean value, read-out: mean optical density as percentage of control, PC-3. The class given is cell-based. In short, it runs like this:
as §1

Another data set deals with SW1088. The data set is described as above. The class given is cell-based. Conditions: Homo sapiens, 10^−5 M, 72 hours of incubation, control condition = 100%, mean value, read-out: mean optical density as percentage of control, SW1088. In short, it runs like this:
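Human astrocytoma SW1088 cells seeded, grown 24 h at 37° C, 5% CO2, then exposed to compounds at 10^−5 to 10^−10 M versus solvent control. Viability by MTT reduction: 3 h MTT incubation, formazan dissolved in DMSO and read by spectrophotometry.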

Another data set concerns J82. The data set is described as above. Particulars: Homo sapiens, 10^−5 M, 72 hours of incubation, control condition = 100%, mean value, read-out: mean optical density as percentage of control, J82. The class given is cell-based. In short, it runs like this: (§2)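 Human bladder cancer lines were seeded at 20 000–50 000 cells/ml and, after 24 h, exposed to compounds at 10^−5 to 10^−10 M against a solvent control. Formazan was dissolved in DMSO and viability was read by spectrophotometric optical density.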

Another data set has as its system T24. The description is as above. The class given is cell-based. Particulars: Homo sapiens, T-24; 10^−5 M, 72 hours of incubation, control condition = 100%, mean value; read-out: mean optical density as percentage of control, T24. In short, it runs like this: as §2
Data set [2] relates to HCT-15.
Data set [3] concerns HCT-15. In words: cells. Conditions: Homo sapiens, HCT-15, read-out: concentration that inhibits by 50% (IC50) the in vitro cell growth of the HCT-15 line.

As a reminder, the melting point is the temperature, or range, at which the solid turns liquid. `COc1ccc(-c2cnc3c(OC)ccc(OC)c3c2OCCN(C)C)cc1` [CRL8370, N-{2-[5,8-Dimethoxy-3-(4-methoxyphenyl)-4-quinolyl]oxy}ethyl-N,N-dimethylamine] showed a melting point of 69 to 70 °C. The viability at 10 µM in the data set on HCT-15 [1] amounted to 103%. The viability at 10 µM in the data set with T-47D came out at 88.5%. Moreover, the viability at 10 µM with U-87MG was 104%. In addition, the viability at 10 µM with A-427 came to 76%. In the data set on LoVo, the viability at 10 µM is 95.1%. Also, the viability at 10 µM in the data set with A549 is 85.6%. Also, the viability at 10 µM in the data set on MCF7 stood at 88.5%. Further, in the data set on U-373MG, the viability at 10 µM is 105%. In addition, in the data set on PC-3, the viability at 10 µM was 87.1%. Also, the viability at 10 µM in the data set with SW1088 turned out to be 99.4%. Also, in the data set on J82, the viability at 10 µM was 102%. Further, the viability at 10 µM in the data set on T24 amounted to 74.3%. Besides, in the data set with HCT-15 [2] (10^−5 M compound + 10^−7 M adriamycin, 15.2/42.8), the “amplification compared with the activity of adriamycin alone (gain / activity alone)” value is given as “about 35%”.

The term inhibition denotes the share of the control response that was lost under treatment. Read a low inhibition as little suppression. `COc1cccc2c1C(=O)c1c(O)c3c(c(O)c1C2=O)C[C@@](O)(C(=O)CO)C[C@@H]3O[C@H]1C[C@H](N)[C@H](O)[C@H](C)O1` [adriamycin, reference compound] gave an inhibition with HCT-15 [2] of 42.8%. The IC50 in the data set on HCT-15 [3] amounted to 100 nM.

Source of the values: patent US6645983B1, “Pharmaceutical compositions comprising 4-quinolones for treating cancers” (Laboratoire L. Lafon, priority 1999, dated 2003).
